Key:
[1] = system: Human immunodeficiency virus 1; assay: Antiviral activity against HIV1 cYTA48P infected in PM1/CCR5 cells by single round assay; assay type: functional, organism-based; details: Human immunodeficiency virus 1, cYTA48P
[2] = Cytotoxicity against human PM1 cells harboring CCR5 co-receptor by WST-8 assay; assay type: cell-based
[3] = target: Envelope glycoprotein gp160 (Human immunodeficiency virus 1) (UniProt Q6QLK5); assay: Induction of conformational changes in HIV1 cYTA48P envelope glycoprotein gp120 infected in PM1/CCR5 cells assessed as mean fluorescence intensity using CD4i monoclonal antibody 4C11 at 100 uM after 15 mins by FACS analysis; assay type: cell-based
[4] = system: Human immunodeficiency virus 1; assay: Antiviral activity against HIV1 cYTA48P infected in PM1/CCR5 cells at 10 uM by single round assay; assay type: functional
[5] = target: Envelope glycoprotein gp160 (Human immunodeficiency virus 1) (UniProt Q6QLK5); assay: Induction of conformational changes in HIV1 cYTA48P envelope glycoprotein gp120 infected in PM1/CCR5 cells assessed as mean fluorescence intensity using CD4i monoclonal antibody 4C11 at 100 uM after 15 mins by FACS analysis relative to NBD-556; assay type: cell-based

Envelope glycoprotein gp160 (Human immunodeficiency virus 1), sequence (Q6QLK5 1-814): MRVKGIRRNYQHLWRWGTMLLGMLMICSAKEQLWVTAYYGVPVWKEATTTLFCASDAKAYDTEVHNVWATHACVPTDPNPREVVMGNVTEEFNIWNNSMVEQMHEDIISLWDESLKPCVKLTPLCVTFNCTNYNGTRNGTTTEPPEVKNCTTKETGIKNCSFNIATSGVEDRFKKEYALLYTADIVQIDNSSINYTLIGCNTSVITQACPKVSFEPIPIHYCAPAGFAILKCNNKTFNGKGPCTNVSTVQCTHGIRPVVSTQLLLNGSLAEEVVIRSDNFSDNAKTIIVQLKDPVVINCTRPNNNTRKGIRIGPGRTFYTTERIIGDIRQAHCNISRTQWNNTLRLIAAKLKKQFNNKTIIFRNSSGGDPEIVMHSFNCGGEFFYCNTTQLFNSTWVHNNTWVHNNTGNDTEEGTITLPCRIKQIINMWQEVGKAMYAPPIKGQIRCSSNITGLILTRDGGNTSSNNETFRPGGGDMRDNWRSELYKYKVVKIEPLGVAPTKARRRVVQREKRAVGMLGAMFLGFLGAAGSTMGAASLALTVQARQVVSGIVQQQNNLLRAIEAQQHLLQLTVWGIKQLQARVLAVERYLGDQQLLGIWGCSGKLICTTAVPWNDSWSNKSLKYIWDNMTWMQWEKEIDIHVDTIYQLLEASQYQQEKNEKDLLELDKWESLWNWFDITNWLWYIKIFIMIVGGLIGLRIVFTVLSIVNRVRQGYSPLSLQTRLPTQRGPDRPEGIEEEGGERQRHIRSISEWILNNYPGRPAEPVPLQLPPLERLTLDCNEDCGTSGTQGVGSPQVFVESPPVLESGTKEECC

Compound | IC50 [1] | CC50 [2] | Flu intensity [3] | Activity [4] | fold change (FC) [5]
CC1(C)CC(NC(=O)c2cc3ccc(Cl)cc3[nH]2)CC(C)(C)N1 | > 100 µM | 37.4 µM |  |  | 
Cn1c(C(=O)NC2CC(C)(C)NC(C)(C)C2)cc2c(F)c(Cl)ccc21 | > 100 µM | 13.9 µM | 6.74 | 32% | 
Cn1c(C(=O)NC2CC3(CCCCC3)NC3(CCCCC3)C2)cc2c(F)c(Cl)ccc21 (centres undefined) | > 100 µM | 12.3 µM | 6.45 |  | 
CCOC(=O)C1CCN(C(=O)CNc2ccc3c(c2)OCO3)CC1 | > 100 µM |  | 18.5 |  | 
CCOC(=O)C1CCN(C(=O)c2cc3ccc(Cl)cc3[nH]2)CC1 | > 100 µM | 52.6 µM |  |  | 
Cc1cc(C)c2cc(C(=O)NC3CC(C)(C)NC(C)(C)C3)n(C)c2c1 | > 100 µM | > 37.5 µM | 7.61 |  | 
CC1(C)CC(NC(=O)CNc2ccc(Cl)cc2)CC(C)(C)N1 | 36.9 µM |  | 30.2 |  | 0.22
CCOC(=O)C1CCN(C(=O)c2cc3c(F)c(Cl)ccc3[nH]2)CC1 | > 100 µM | > 200 µM | 8.24 |  | 0.42
Cn1c(C(=O)NC2CC3(CCCCC3)NC3(CCCCC3)C2)cc2ccc(Cl)cc21 (centres undefined) | > 100 µM | 33.9 µM |  |  | 
O=C(NC1CC2(CCCCC2)NC2(CCCCC2)C1)c1cc2cc3c(cc2[nH]1)OCO3 (centres undefined) | 1 µM | > 100 µM | 36.4 |  | 0.36
CC1(C)CC(NC(=O)c2cc3cc(Cl)ccc3[nH]2)CC(C)(C)N1 | 3.65 µM | 48.6 µM | 8.7 |  | 0.82
CCOC(=O)C1CCN(C(=O)c2cc3cc(F)c(Cl)cc3[nH]2)CC1 | > 100 µM | 121 µM |  |  | 
Cn1c(C(=O)NC2CC(C)(C)NC(C)(C)C2)cc2cc(Cl)ccc21 | > 100 µM | 37.5 µM | 6.65 |  | 
O=C(NC1CC2(CCCCC2)NC2(CCCCC2)C1)c1cc2ccc(Cl)cc2[nH]1 (centres undefined) | > 100 µM | 10.7 µM |  | 11% | 
O=C(NC1CC2(CCCCC2)NC2(CCCCC2)C1)c1cc2cc(F)c(Cl)cc2[nH]1 (centres undefined) | > 100 µM | 11.3 µM |  |  | 
CCOC(=O)C1CCN(C(=O)c2cc3ccc(Cl)cc3n2C)CC1 | > 100 µM | 78.4 µM |  |  | 
CC1(C)CC(NC(=O)CNc2ccc3c(c2)OCO3)CC(C)(C)N1 | > 30 µM |  | 23.4 |  | 0.073
CCOC(=O)C1CCN(C(=O)c2cc3c(C)cc(C)cc3[nH]2)CC1 | > 100 µM | > 200 µM | 8.14 |  | 0.33

Compound | IC50 [1] | CC50 [2] | Flu intensity [3] | Activity [4] | fold change (FC) [5]
O=C(NC1CC2(CCCCC2)NC2(CCCCC2)C1)c1cc2c(F)c(Cl)ccc2[nH]1 (centres undefined) | 3.6 µM | 11.4 µM | 8.05 |  | 0.25
CC1(C)CC(NC(=O)c2cc3cc4c(cc3[nH]2)OCO4)CC(C)(C)N1 | 23 µM |  | 30.7 |  | 0.23
Cn1c(C(=O)NC2CC(C)(C)NC(C)(C)C2)cc2ccc(Cl)cc21 | > 100 µM | 33.2 µM |  | 27% | 
Cn1c(C(=O)NC2CC3(CCCCC3)NC3(CCCCC3)C2)cc2cc(F)c(Cl)cc21 (centres undefined) | > 100 µM | 29.4 µM |  |  | 
CC1(C)CC(NC(=O)c2cc3c(F)c(Cl)ccc3[nH]2)CC(C)(C)N1 | > 10 µM | 19.4 µM | 8.55 | 32% | 0.68
CCOC(=O)C1CCN(C(=O)c2cc3cc4c(cc3[nH]2)OCO4)CC1 | 63 µM |  | 26.2 |  | 0.13
CCOC(=O)C1CCN(C(=O)c2cc3c(F)c(Cl)ccc3n2C)CC1 | > 100 µM | > 63.5 µM | 8.63 |  | 0.76
Cc1cc(C)c2cc(C(=O)NC3CC(C)(C)NC(C)(C)C3)[nH]c2c1 | > 100 µM | 60.3 µM | 8.08 |  | 0.28
CCOC(=O)C1CCN(C(=O)c2cc3cc(F)c(Cl)cc3n2C)CC1 | > 100 µM | 41.1 µM |  |  | 
O=C(CNc1ccc2c(c1)OCO2)NC1CC2(CCCCC2)NC2(CCCCC2)C1 (centres undefined) | 10.8 µM |  | 28.7 |  | 0.19
CCOC(=O)C1CCN(C(=O)c2cc3c(C)cc(C)cc3n2C)CC1 | > 100 µM | > 50.2 µM | 8.11 |  | 0.3
Cc1cc(C)c2cc(C(=O)NC3CC4(CCCCC4)NC4(CCCCC4)C3)[nH]c2c1 (centres undefined) | > 100 µM | 9.6 µM | 5.27 |  | 
CC1(C)CC(NC(=O)c2cc3cc(F)c(Cl)cc3[nH]2)CC(C)(C)N1 | 88.7 µM | 103 µM |  |  | 
Cn1c(C(=O)NC2CC(C)(C)NC(C)(C)C2)cc2cc(F)c(Cl)cc21 | > 100 µM | 18.7 µM |  |  | 
O=C(CNc1ccc(Cl)cc1)NC1CC2(CCCCC2)NC2(CCCCC2)C1 (centres undefined) | 2.2 µM | > 100 µM | 19.6 |  | 
Cc1cc(C)c2cc(C(=O)NC3CC4(CCCCC4)NC4(CCCCC4)C3)n(C)c2c1 (centres undefined) | > 100 µM | > 13.5 µM | 7.96 |  | 0.17
CC1(C)CC(NC(=O)C(=O)Nc2ccc(Cl)cc2)CC(C)(C)N1 | 0.63 µM | 70.4 µM | 8.91 |  | 
CCOC(=O)C1CCN(C(=O)CNc2ccc(Cl)cc2)CC1 | > 100 µM |  | 23.8 |  | 0.081

Reference: ChEMBL document CHEMBL4261625, “Flexibility of small molecular CD4 mimics as HIV entry inhibitors” (Bioorg Med Chem, 2018)
